From patent publication EP1064284B1, “HYPNOTIC BETA-CARBOLINE DERIVATIVES, PROCESS FOR THEIR PREPARATION AND THEIR USE AS MEDICINAL PRODUCTS” (priority 1998, dated 1999)
Entries after “also recorded” stand apart in the source; their conditions may differ. Where two headings read alike, the source gives them in different places.

What was measured:
[1] = Absolute oral bioavailability (oral/IV) in Beagle dogs; type: in vivo
[2] = Stability in acidic medium (hydrolysis of cycle A in pH buffers, HPLC); type: physicochemical; settings: for Hydrolysis rate (%) pH=1: pH=1 buffer; for Hydrolysis rate (%) pH=1 / Hydrolysis rate (%) pH=2 / Hydrolysis rate (%) pH=3 / Hydrolysis rate (%) pH=7 (reference): 30 µM in 5 ml, stirred 15 minutes at 37°C; for Hydrolysis rate (%) pH=2: pH=2 buffer; for Hydrolysis rate (%) pH=3: pH=3 buffer; for Hydrolysis rate (%) pH=7 (reference): pH=7 (reference) buffer
Procedure: In order to study the influence of R8 group on the stability of cycle A when comparing compounds EXAMPLE A and EXAMPLE B (R8 = hydrogen atom) to compounds of Example 1, Example 4, Example 7, Example 8 and Example 11, 30 µM of each of these compounds were dissolved into 5 ml of pH=1 or pH=2 or pH=3 or pH=7 (reference) buffer. Solutions were stirred for 15 minutes at 37°C. Subsequent measurements of compounds amounts non hydrolyzed were measured using a high performance liquid chromatography method. [drawing 18] Table I :
Compounds n°1, 4, 7, 8 and 11 are quite stable from pH=2, since less than 27 per cent of these compounds are hydrolysed at pH≥2.

Beagle dogs = test: Hypnotic activity: effects on wakefulness / sleep states in Beagle dogs (EEG/EMG/EOG polygraph); type: in vivo; settings: for Mean (± S.D.) duration of stages in 8 dogs (minutes) REM / Mean (± S.D.) latencies after administration (minutes) REM / Mean (± S.D.) duration of stages in 8 dogs (minutes) Drowsy / Mean (± S.D.) duration of stages in 8 dogs (minutes) SWS / Mean (± S.D.) duration of stages in 8 dogs (minutes) Sleep / Mean (± S.D.) duration of stages in 8 dogs (minutes) Wake / Mean (± S.D.) latencies after administration (minutes) Drowsy / Mean (± S.D.) latencies after administration (minutes) SWS: 120 minutes observation; for hypnotic effect in Beagle dogs (in words): oral
Procedure: Beagle dogs are kept in a metal cage, connected to 2 Schwartzer ED 24 Polygraph equipped with BRAINLAB® software, through a flexible cable. Test and control products are administered via the oral or intravenous routes by means of gastric tubes. Records are scored in 30 seconds epochs for active wake, drowsy, slow wave sleep (light sleep + deep sleep) and REM sleep. These criteria are according to SHELTON et al.( in SHELTON J., NISHINO S., VAUGHT J., DEMENT W.C. and MIGNOT E. Comparative effects of modafinil and amphetamine on daytime sleepiness and cataplexy of narcoleptic dogs. Sleep 19(1); 29-38, 1996.), based upon frequency and amplitude patterns of EEG cortical tracing (fronto-frontal), EMG (upper neck muscles) and EOG (bilateral). Behaviour is also continuously monitored for each observation period of 120 minutes. Prior acclimatisation of the dogs take 5 days; and, to mimic similar stress caused by gastric tubing, a mixture water/PEG (50/50; V/V) was administered orally together with intravenous boluses. • Wake : includes all episodes with low voltage mixed frequency tracing in which the EMG is not inhibited. […] Synchronous waves at 4 - 7 Hz and 50 - 100 µV appear on a background of low voltage fast-wave activity. […] EEG patterns are of higher amplitude than in the previous stage and sleep spindles ( 10 - 14 Hz) and / or K complexes must be present in light sleep, as EOG show slow eye movements or no movement. Deep sleep is scored when slow delta waves (< 4 Hz) constitute 20 p. cent of an epoch or more during deep sleep. • REM : rapid eye movement sleep is scored when dogs lay down, eyes closed with intermittent apparent fast muscle twitches. A low voltage mixed frequency EEG tracing is observed together with rapid eye movements and a drop in EMG activity.
Repartition and duration of wakefulness / sleep states in Beagle dogs have been measured after oral (and intravenous route for compoundof EXAMPLE 1) administrations of Placebo (vehicle = 10 ml of mixture ethanol / PEG 400 / water; 10 / 40 /50; V/V/V) compounds of Example 1, Example 4 and Example 7.
Results are presented in Tables II and III as Durations and Latencies of each stage.

[3] = dog, in vivo, Beagle dogs, fasting conditions, oral relative to intravenous route, read-out: Absolute bioavailability oral/IV in Beagle dogs (fasting conditions) 1 < gastric pH < 2

| SMILES | Hydrolysis rate (%) pH=1 [2] [%] | Hydrolysis rate (%) pH=2 [2] [%] | Hydrolysis rate (%) pH=3 [2] [%] | Hydrolysis rate (%) pH=7 (reference) [2] [%] | bioavailability ([1]; beagle, dog, in vivo) [%] | per cent of compounds hydrolysed at pH≥2 [2] | hypnotic effect in Beagle dogs (in words) (Beagle dogs) | further results |
| --- | --- | --- | --- | --- | --- | --- | --- | --- |
| COc1ccc2[nH]c3c(c2c1)CCN1C(=O)CCC=C31 [EXAMPLE A, reference compound] | 100 | 100 | 100 | 0 |  |  |  | bioavailability [1, 3]: < 1%; hydrolysis between pH=1 and pH=3 (in words) [2]: totally hydrolyzed |
| COc1ccc2[nH]c3c(c2c1)CCN1C(=O)CCCC31 (stereo not shown) [EXAMPLE B, reference compound] | 95 | 95 | 90 | 0 |  |  |  | Absolute bioavailability oral/IV in Beagle dogs (fasting conditions) 1 < gastric pH < 2 ([1]; Beagle dogs, fasting conditions, oral relative to intravenous route): <5%; bioavailability [1, 3]: < 5%; hydrolysis between pH=1 and pH=3 (in words) [2]: totally hydrolyzed |
| CCC1=C2c3[nH]c4ccc(OC)cc4c3CCN2C(=O)CC1 [Example 1, 9-methoxy-1-ethyl-2,3,4,6,7,12-hexahydroindolo [2,3-a] quinolizin-4-one] | 79.5 | 14.5 | 8.7 | 0 | > 35 | less than 27 per cent | significant hypnotic effect; also recorded: potent hypnotic activity | Absolute bioavailability oral/IV in Beagle dogs (fasting conditions) 1 < gastric pH < 2 ([1]; beagle, dog, in vivo): >35%; Mean (± S.D.) duration of stages in 8 dogs (minutes) REM (Beagle dogs; 2.5 µmol/Kg IV): 3.8 (3.9) minutes; Mean (± S.D.) latencies after administration (minutes) REM (Beagle dogs; 2.5 µmol/Kg IV): 79.9 (25.4) minutes; Mean (± S.D.) duration of stages in 8 dogs (minutes) REM (Beagle dogs; 2.5 µmol/Kg oral): 3.3 (3.4) minutes; Mean (± S.D.) latencies after administration (minutes) REM (Beagle dogs; 2.5 µmol/Kg oral): 82.9 (32.8) minutes; Mean (± S.D.) duration of stages in 8 dogs (minutes) REM (Beagle dogs; 5 µmol/Kg oral, Table II): 3.1 (3.7) minutes; Mean (± S.D.) latencies after administration (minutes) REM (Beagle dogs; 5 µmol/Kg oral, Table II): 79.3 (33.3) minutes; Mean (± S.D.) duration of stages in 8 dogs (minutes) REM (Beagle dogs; 10 µmol/Kg oral, Table II): 2.4 (3.5) minutes; Mean (± S.D.) latencies after administration (minutes) REM (Beagle dogs; 10 µmol/Kg oral, Table II): 101.9 (27.3) minutes |
| COc1ccc2[nH]c3c(c2c1)CCN1C(=O)CCC(c2ccccc2)=C31 [Example 4, 9-methoxy-1-phenyl-2,3,4,6,7,12-hexahydroindolo[2,3-a] quinolizin-4-one] | 0 | 0 | 0 | 0 | > 20 | less than 27 per cent | significant hypnotic effect; also recorded: potent hypnotic activity | Absolute bioavailability oral/IV in Beagle dogs (fasting conditions) 1 < gastric pH < 2 ([1]; beagle, dog, in vivo): >20%; Mean (± S.D.) duration of stages in 8 dogs (minutes) Drowsy (Beagle dogs; 10 µmol/Kg oral, Table III): 10.4 (3.9) minutes; Mean (± S.D.) duration of stages in 8 dogs (minutes) REM (Beagle dogs; 10 µmol/Kg oral, Table III): 4.4 (4.5) minutes; Mean (± S.D.) duration of stages in 8 dogs (minutes) SWS (Beagle dogs; 10 µmol/Kg oral, Table III): 31.5 (17.6) minutes; Mean (± S.D.) duration of stages in 8 dogs (minutes) Sleep (Beagle dogs; 10 µmol/Kg oral, Table III): 46.3 (21.3) minutes; Mean (± S.D.) duration of stages in 8 dogs (minutes) Wake (Beagle dogs; 10 µmol/Kg oral, Table III): 73.8 (21.3) minutes; Mean (± S.D.) latencies after administration (minutes) Drowsy (Beagle dogs; 10 µmol/Kg oral, Table III): 50.4 (19.8) minutes; Mean (± S.D.) latencies after administration (minutes) REM (Beagle dogs; 10 µmol/Kg oral, Table III): 93.1 (26.3) minutes; Mean (± S.D.) latencies after administration (minutes) SWS (Beagle dogs; 10 µmol/Kg oral, Table III): 58.1 (27.0) minutes |
| CCC1=C2c3[nH]c4ccc(OC)cc4c3CCN2C(=S)CC1 [Example 7, 9-methoxy-1-ethyl-2,3,4,6,7,12-hexahydroindolo[2,3-a] quinolizine-4-thione] | 17.0 | 13.0 | 5.4 | 0 |  | less than 27 per cent | significant hypnotic effect; also recorded: potent hypnotic activity | Mean (± S.D.) duration of stages in 8 dogs (minutes) Drowsy (Beagle dogs; 5.0 µmol/Kg oral, Table III): 13.0 (8.6) minutes; Mean (± S.D.) duration of stages in 8 dogs (minutes) REM (Beagle dogs; 5.0 µmol/Kg oral, Table III): 4.4 (6.1) minutes; Mean (± S.D.) duration of stages in 8 dogs (minutes) SWS (Beagle dogs; 5.0 µmol/Kg oral, Table III): 18.9 (14.7) minutes; Mean (± S.D.) duration of stages in 8 dogs (minutes) Sleep (Beagle dogs; 5.0 µmol/Kg oral, Table III): 35.1 (25.8) minutes; Mean (± S.D.) duration of stages in 8 dogs (minutes) Wake (Beagle dogs; 5.0 µmol/Kg oral, Table III): 83.7 (25.1) minutes; Mean (± S.D.) latencies after administration (minutes) Drowsy (Beagle dogs; 5.0 µmol/Kg oral, Table III): 59.0 (20.0) minutes; Mean (± S.D.) latencies after administration (minutes) REM (Beagle dogs; 5.0 µmol/Kg oral, Table III): 91.1 (28.1) minutes; Mean (± S.D.) latencies after administration (minutes) SWS (Beagle dogs; 5.0 µmol/Kg oral, Table III): 74.1 (26.3) minutes |
| CCC1CCC(=O)N2CCc3c([nH]c4ccc(OC)cc34)C12 (stereo not shown) [Example 8, 9-methoxy-1-ethyl-1,2,3,4,6,7,12,12b-octahydroindolo [2,3-a] quinolizin-4-one] | 0 | 0 | 0 | 0 | 100 | less than 27 per cent |  |  |
| COc1ccc2[nH]c3c(c2c1)CCN1C(=S)CCC(c2ccccc2)=C31 [Example 11, 9-methoxy-1-phenyl-2,3,4,6,7,12-hexahydroindolo [2,3-a] [beta]quinolizin 4-thione] | 26.0 | 27.0 | 30.0 | 0 |  | less than 27 per cent |  |  |
